Reference: publication PMC12645191, “Dicarboxylate and dicarboxylic acid appended supramolecular self-associating amphiphiles as antimicrobial agents against high priority bacterial pathogens” (Organic & Biomolecular Chemistry, 2025)
Converted amounts (≈) assume the structure as drawn. “And” between values parts separate entries of the source, which are not always exact repeats. Identical values can stand only once.

How the values were obtained:
[1] = kinetic solubility determination in PBS pH 7.4; details: upper limit set at 300 µM; for solubility: PBS, pH 7.4, aqueous buffer, kinetic from dmso stock, Solubility in PBS pH 7.4, kinetic
P. aeruginosa PAO1 = assay: inhibition of bacterial growth, OD600 after 20 h; type: cell-based, Pseudomonas aeruginosa; details: SSA 5.0 mM, 2.5% ethanol, negative = enhanced growth
Description: With the self-associative properties of 1–10 established, the antimicrobial activity of these SSAs were determined against a panel of clinically relevant, high-priority pathogens including: P. aeruginosa PAO1; Klebsiella pneumonia (K. pneumoniae) M6; E. coli NCTC 12923; Acinetobacter baumannii (A. baumannii) ATCC 17978; S. aureus ATCC 9144; Enterococcus faecalis (E. faecalis) NCTC 775; and Enterococcus faecium (E. faecium) NCTC 12204. […] However, it should be noted that the SSA stock solution was prepared in a H2O 5% EtOH solution, to ensure that the SSA aggregates formed were in line with those characterised within the scope of the SSA self-association studies.
Section 3: Biological methods
These methods were taken directly from UK Health and Security Office (UKHSA) standard […]
Preparation of Luria Broth media (LB): Yeast extract (5.0 g), tryptone (10.0 g) and sodium chloride (10.0 g) were dissolved in dH₂O (1.0 L) then divided into bottles and autoclaved.
Preparation of Luria Broth (LB) agar plates: Agar (6.0 g) was added to LB (400 mL) and autoclaved. Once cool, the LB agar was poured into sterile petri dishes under sterile conditions and allowed to set. LB plates were stored at 4 °C until use.
Preparation of bacterial plates: Sterile LB agar plates were streaked using streaked using the desired bacteria i) Pseudomonas aeruginosa (P.aeruginosa) PAO1, ii) Klebsiella pneumoniae (K. pneumoniae) M6 iii) E. coli NCTC 12923 and iv) Acinetobacter baumannii (A. baumannii) ATCC 17978 and Gram-positive i) Staphylococcus aureus (S. aureus) ATCC 9144 ii) Enterococcus faecalis (E. faecalis) NCTC 775 and iii) Enterococcus faecium (E. faecium ) NCTC 12204, then incubated at 37 °C overnight.
Preparation of Inoculum: An initial culture was made up by inoculating LB media (5 mL) with a single colony of bacteria under sterile conditions and incubated at 37 °C with shaking overnight. The following day, overnight bacterial cultures were subcultured into fresh LB medium to a starting OD600 of 0.01.
Preparation of 96 well microplate for MIC50: The 1:100 cell suspension (150 µL) was dispensed into individual wells under sterile conditions. SSAs (30 µL) were added to the wells to equal a total volume of 180 µL in the wells. Six repeats of each concentration for each SSA were created each plate. The plates were sealed using parafilm, then incubated at 37 °C in a microplate reader for 20 hours. OD600 endpoint data was used to generate growth curves. […]

S. aureus ATCC 9144 = assay: inhibition of bacterial growth, OD600 after 20 h; type: cell-based, Staphylococcus aureus; details: SSA 5.0 mM, 2.5% ethanol, negative = enhanced growth; for inhibition at 5000 µM: Staphylococcus aureus, ATCC9144, 20 h, read-out: Percentage inhibition of bacterial growth, ATCC 9144 (S. aureus)
[2] = metabolic stability in liver microsomes; type: in vitro ADME, rat; details: for microsomal CLint at 1 µM: read-out: in vitro CLint; for half-life at 1 µM: read-out: in vitro t1/2; for CLint scaled at 1 µM: liver microsomes, read-out: Scale-up CLint
Description: Metabolic stability was assessed in mouse and rat liver microsomes. Microsomes are subcellular fractions of hepatocytes and contain CYP450s, the predominant enzymes involved in first-pass metabolism.[66] […] A plasma protein binding assay was performed to assess the extent of compound binding to plasma proteins. This is key as only unbound compound is free to distribute and exert a pharmacological effect. […] To assess the potential for this sub-class of SSAs to be developed as drugs for oral administration, Caco-2 permeability assays were also performed, as a cellular model indicative of human intestinal permeability.
Section 3: Biological methods […]
In vitro Absorption, Distribution and Metabolism
These studies were performed by Contract Research Organisation (CRO) Pharmaron. The methodology provided within the ESI is published within the express permission of this organisation. The percentage of a compound recovered during the analysis process should be 100 %; any deviation from this value indicates experimental limitations such as unintended potential non-specific binding events to experimental equipment, solubility issues, etc.
Metabolic Stability in Rat and Mouse Liver Microsomes:
The metabolic stability of compounds at a concentration of 1 µM, in rat and mouse liver […]
/ mL) in the presence and absence of cofactor (NADPH) at 37 °C. Aliquots of each incubation were removed at 0.5, 5, 15, 30 and 60 minutes. The reaction was stopped by the addition of 5 volumes of cold acetonitrile containing analytical internal standard (IS).
Samples were then centrifuged at 3 °C, 220 g for 40 minutes to remove cell debris. The supernatant was aliquoted and added to ultra-pure H2O in a 1:1 ratio in preparation for LC- […]
Samples were analysed using a Shimadzu liquid chromatography system coupled to a Triple Quad 6500+ mass spectrometry (AB Inc.) Separation of compounds was achieved using an HSS T3 column (50 x 2.1 mm) at a temperature of 40 °C and a binary mobile phase gradient […]
at a flow rate of 0.7 mL/min. […]
acid in water) and 5 % solvent B (0.1 % formic acid in acetonitrile). […]
solvent B at 0.7 minutes, held for 0.5 minutes and then immedi ately returned to initial conditions. Sample analysis was by electrospray ionisation. […]

[3] = quantitative (Q) 1H NMR spectroscopy, proportion of SSA becoming NMR silent (higher-order aggregates); type: physicochemical
[4] = dynamic light scattering (DLS) of SSA aggregates; type: physicochemical; details: 5.6 mM, H2O 5.0% EtOH, 298 K
How it was run: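 Hydrodynamic diameter (dH) determined by DLS, with zeta potential for stability, in H2O 5.0% EtOH. Aggregates examined at 5.6 mM.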

[5] = rat liver microsomes, 1 µM, 0.5 mg protein/mL

Row | SMILES | solubility [1] [µM] | Percentage inhibition of bacterial growth, PAO1 (P. aeruginosa) (P. aeruginosa PAO1) | Percentage inhibition of bacterial growth, ATCC 9144 (S. aureus) (S. aureus ATCC 9144) | inhibition at 5000 µM (S. aureus ATCC 9144) [%] | Hepatic Extraction Ratio (ER) ([2]; rat) | Predicted Hepatic CLH ([2]; rat) [mL/min/kg] | microsomal CLint at 1 µM [2, 5] [µL/min/mg] | half-life at 1 µM [2, 5] [h] | Remaining percentage ([2]; rat, +Cofactors, 0.5 min) [%] | Remaining percentage ([2]; rat, +Cofactors, 5 min) [%] | Remaining percentage ([2]; rat, +Cofactors, 15 min) [%] | Remaining percentage ([2]; rat, +Cofactors, 30 min) [%] | Remaining percentage ([2]; rat, +Cofactors, 60 min) [%] | Remaining percentage ([2]; rat, -Cofactors, 0.5 min) [%] | Remaining percentage ([2]; rat, -Cofactors, 60 min) [%] | CLint scaled at 1 µM ([2]; rat) [mL/min/kg] | (Q) 1H NMR spectroscopy, proportion NMR silent, acid or anion ([3]; 5.6 mM, D2O 5.0% EtOH, 298 K) | (Q) 1H NMR, proportion NMR silent, SSA acid or anion ([3]; ~112 mM, DMSO-d6 1.0% DCM) [%] | further results
1 | O=C(O)CC[C@H](NC(=O)Nc1ccc(C(F)(F)F)cc1)C(=O)O [SSA 1] | 303 (≈ 101 µg/mL) | -28.56% and −29% | 99% | 98.7 | < 0.21 | < 14.42 | < 7.5 | > 3.08 | 100.00 | 96.56 | 99.83 | 96.48 | 95.66 | 100.00 | 102.14 | < 18.3 | 38.5% and 39% | 0 | 
2 | O=C(O)CC[C@H](NC(=O)Nc1ccc(C(F)(F)F)cc1)C(=O)O [SSA 2] |  | -11.25% and −11% | 79.71% and 80% |  | < 0.21 | < 14.42 |  |  | 100.00 | 95.53 | 94.28 | 97.57 | 96.64 | 100.00 | 97.74 |  | 39.8% and ~40% | 0 | Solubility in PBS pH 7.4 ([1]; kinetic): 297.29 μM; Scale-up CLint ([2]; rat): < 18.30 mL/min/kg; in vitro CLint [2, 5]: < 7.50 µL/min/mg; in vitro t1/2 [2, 5]: > 3.0797 h; (Q) 1H NMR spectroscopy, proportion NMR silent, cation ([3]; 5.6 mM, D2O 5.0% EtOH, 298 K): 36.3% and 36%; (Q) 1H NMR, proportion NMR silent, cation ([3]; ~112 mM, DMSO-d6 1.0% DCM): 0%; Polydispersity index (%) [4]: 18.2 (± 1.1) %; dH (DLS intensity distribution peak 1 maxima) [4]: 140 nm
3 | O=C(O)CC[C@@H](NC(=O)Nc1ccc(C(F)(F)F)cc1)C(=O)O [SSA 3] | 310 (≈ 104 µg/mL) |  |  | 99.1 | < 0.21 | < 14.42 | < 7.5 | > 3.08 | 100.00 | 95.07 | 99.07 | 97.86 | 98.31 | 100.00 | 104.13 | < 18.3 |  | 0 | Percentage inhibition of bacterial growth, PAO1 (P. aeruginosa) (P. aeruginosa PAO1; listed as 3): -35.71% and −36%; Percentage inhibition of bacterial growth, ATCC 9144 (S. aureus) (S. aureus ATCC 9144; listed as 3): 99%; (Q) 1H NMR spectroscopy, proportion NMR silent, acid or anion ([3]; 5.6 mM, D2O 5.0% EtOH, 298 K, listed as 3): 34%; DLS Peak 2 maxima ([4]; listed as 3): 1410 nm; Polydispersity index (%) ([4]; listed as 3): 20.2 (± 0.7) %; dH (DLS intensity distribution peak 1 maxima) ([4]; listed as 3): 154 nm
4 | O=C(O)CC[C@H](NC(=O)Nc1ccc(Br)cc1)C(=O)O [SSA 9] | 305 (≈ 105 µg/mL) |  |  |  | < 0.21 | < 14.42 | < 7.5 | > 3.08 | 100.00 | 97.95 | 96.49 | 99.04 | 100.06 | 100.00 | 102.63 | < 18.3 |  |  | Percentage inhibition of bacterial growth, ATCC 9144 (S. aureus) (S. aureus ATCC 9144; listed as 9): 60.74% and 61%; (Q) 1H NMR spectroscopy, proportion NMR silent, acid or anion ([3]; 5.6 mM, D2O 5.0% EtOH, 298 K, listed as 9): 40.9% and 41%; Polydispersity index (%) ([4]; listed as 9): 25.6 (± 1.0) %; dH (DLS intensity distribution peak 1 maxima) ([4]; listed as 9): 178 nm
